Measured values taken from patent publication US20140288040A1, “SUBSTITUTED BENZYLAMINE COMPOUNDS, THEIR USE IN MEDICINE, AND IN PARTICULAR THE TREATMENT OF HEPATITIS C VIRUS (HCV) INFECTION” (ASTEX THERAPEUTICS LIMITED, priority 2011, published 2014).
Counter-ions that a name gives are not always drawn.

These compounds were tested against T1, HCV NS3 protease (full length NS34a) (Hepatitis C virus genotype 1b, UniProt P26663) (assay: HCV NS3 protease assay (FRET, full length NS34a)). Details: IC50 values of 10-150 μM against the protease activity of the full length NS34a, or at least 40% inhibition of protease activity at a concentration of 100 μM.
T1 construct: The protease activity of the full length NS34a was measured using a FRET-based assay; made in house
T1 sequence (P26663 1658-1711): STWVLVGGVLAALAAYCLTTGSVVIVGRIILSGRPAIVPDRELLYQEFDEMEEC
T1 sequence (P26663 1027-1657): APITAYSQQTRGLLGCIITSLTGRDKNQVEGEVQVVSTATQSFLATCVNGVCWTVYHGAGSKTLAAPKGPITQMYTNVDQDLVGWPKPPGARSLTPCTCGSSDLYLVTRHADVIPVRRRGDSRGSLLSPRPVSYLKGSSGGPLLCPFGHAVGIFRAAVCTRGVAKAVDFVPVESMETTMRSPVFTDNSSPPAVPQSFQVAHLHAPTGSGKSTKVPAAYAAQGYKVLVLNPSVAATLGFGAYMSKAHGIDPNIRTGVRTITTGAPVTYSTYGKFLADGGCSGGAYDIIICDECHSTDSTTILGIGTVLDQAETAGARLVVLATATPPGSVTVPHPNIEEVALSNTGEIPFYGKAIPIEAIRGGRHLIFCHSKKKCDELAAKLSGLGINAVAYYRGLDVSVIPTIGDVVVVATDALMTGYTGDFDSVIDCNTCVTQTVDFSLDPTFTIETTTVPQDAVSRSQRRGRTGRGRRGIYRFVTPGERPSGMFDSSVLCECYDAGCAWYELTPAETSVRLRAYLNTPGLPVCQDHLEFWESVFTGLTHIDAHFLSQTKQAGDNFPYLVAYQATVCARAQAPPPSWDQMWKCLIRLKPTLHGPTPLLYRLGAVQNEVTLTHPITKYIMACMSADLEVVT
Format: biochemical
Experimental: The HCV NS3 protease functions have been extensively studied and are considered as potential targets for antiviral therapy: see for example the many references listed in the introductory section of this application. Therefore, the activity of the compounds of the invention as anti-HCV agents was assessed using a full length HCV NS3 protease.
The protease activity of the full length NS34a was measured using a FRET-based assay utilizing a peptide substrate derived from the NS4AB cleavage site (Anaspec) and labelled at one end with a quencher (QXL520) and at the other with a fluorophore (5-FAMsp). NS34a (produced in-house by literature methods) was incubated with test compounds and peptide substrate in 50 mM Tris pH8, 20 mM DTT, 1% CHAPS, 10% glycerol and 5% DMSO. The reaction was followed by monitoring the change in fluorescence on a Molecular Devices Gemini plate reader for 30 minutes at room temperature. Initial rates were calculated from the progress curves using SoftMax Pro (Molecular Devices). IC50 values were then calculated from replicate curves using Prism GraphPad software.

IC50	Structure (SMILES)
10 to 150 µM	NC(=O)C[C@@H](N)c1ccc(Cl)c(Oc2ccccc2)c1F [Example 354]
10 to 150 µM	CCC(NC1CCCC1)c1ccc(F)c(Oc2ccccc2)c1F (stereo not drawn) [Example 30]
10 to 150 µM	CCC(NC(C)c1ccn[nH]1)c1ccc(F)c(Oc2ccccc2)c1F (stereo not drawn) [Example 33]
10 to 150 µM	CC[C@@H](N[C@H](C)c1ccc[nH]c1=O)c1ccc(Cl)c(Oc2ccccc2)c1F (single isomer, unassigned) [Example 314]
10 to 150 µM	NCCC(N)c1ccc(F)c(Oc2ccccc2)c1F (stereo not drawn) [Example 94]
10 to 150 µM	CC[C@@H](N[C@@H](C)CC(=O)N[C@@H](C)CO)c1ccc(Cl)c(Oc2ccccc2)c1F [Example 206]
10 to 150 µM	CC[C@@H](N)c1ccc(Cl)c(Oc2ccc(Cl)nn2)c1F [Example 153]
10 to 150 µM	CC[C@@H](N[C@@H](C)CC(=O)NCC(=O)OC)c1ccc(Cl)c(Oc2ccccc2)c1F [Example 159]
10 to 150 µM	CCC(NCc1cnc(C)n1C)c1ccc(F)c(Oc2ccccc2)c1F (stereo not drawn) [Example 23]
10 to 150 µM	NC(CCO)c1ccc(F)c(Oc2ccccc2)c1F (stereo not drawn) [Example 294, 3-Amino-3-(2,4-difluoro-3-phenoxy-phenyl)-propan-1-ol.hydrochloride]
10 to 150 µM	CCC(NCc1ccc2[nH]ccc2c1)c1ccc(F)c(Oc2ccccc2)c1F (stereo not drawn) [Example 35]
10 to 150 µM	CC[C@@H](N[C@H](C)CC(=O)NCC(=O)OC)c1ccc(Cl)c(Oc2ccccc2)c1F [Example 308]
10 to 150 µM	CC[C@@H](N[C@H](C)CC(N)=O)c1ccc(Cl)c(Oc2ccc(C#N)c(F)c2)c1F [Example 214]
10 to 150 µM	CC[C@@H](N[C@H](C)CC(=O)N(C)OC)c1ccc(Cl)c(Oc2ccccc2)c1F [Example 160]
10 to 150 µM	N[C@@H](CC1CCOCC1)c1ccc(Cl)c(Oc2ccccc2)c1F [Example 276B, (S)-1-(4-Chloro-2-fluoro-3-phenoxy-phenyl)-2-(tetrahydro-pyran-4-yl)-ethylamine.hydrochloride]

Structure (SMILES)	IC50
C=CCNC(CC)c1ccc(F)c(Oc2ccccc2)c1F (stereo not drawn) [Example 39, Allyl-[1-(2,4-difluoro-3-phenoxy-phenyl)-propyl]-amine. hydrochloride]	10 to 150 µM
CCC(NC(C)CC(=O)NC)c1ccc(F)c(Oc2ccccc2)c1F (stereo not drawn) [Example 48]	10 to 150 µM

Same assay, conditions: protease activity of full length NS34a, FRET peptide substrate; read-out: Activity IC50

IC50	Structure (SMILES)
7.1 µM	NC(c1ccc(F)c(Oc2ccccc2)c1F)C1CCOCC1 (stereo not drawn) [Example 41]
1.1 µM	CC[C@H](Nc1ncc(CN)cn1)c1ccc(Cl)c(Oc2ccccc2)c1F [Example 330]
2.2 µM	CC[C@@H](N)c1ccc(Cl)c(Oc2ccc(F)c(C(N)=O)c2)c1F [Example 227, 5-[3-((R)-1-Amino-propyl)-6-chloro-2-fluoro-phenoxy]-2-fluoro-benzamide (R isomer).hydrochloride]
6.9 µM	CC[C@@H](N)c1ccc(Cl)c(Oc2cccc([N+](=O)[O-])c2)c1F [Example 152]
1.9 µM	CS(=O)(=O)Nc1cccc(Oc2c(F)ccc(C(N)CC3CCNCC3)c2F)c1 (stereo not drawn) [Example 108B, N-{3-[3-(1-Amino-2-piperidin-4-yl-ethyl)-2,6-difluoro-phenoxy]-phenyl}-methane-sulfonamide.dihydrochloride]
1.7 µM	CC[C@@H](N[C@@H](C)c1[nH]cnc1C)c1ccc(Cl)c(Oc2ccccc2)c1F [Example 148]
3.8 µM	CC[C@@H](N)c1ccc(Cl)c(Oc2cccc(C#N)c2)c1F [Example 199]
1 µM	C[C@@H](CC(N)=O)N[C@H](C)c1ccc(Cl)c(Oc2ccccc2)c1F [Example 336]
5.6 µM	CCC(NCc1cnc[nH]1)c1ccc(F)c(Oc2ccccc2)c1F (stereo not drawn) [Example 37]
3 µM	CS(=O)(=O)Nc1cccc(Oc2c(F)ccc(CNc3ccnc(N)c3)c2F)c1 [Example 286]
1.5 µM	CC[C@@H](N[C@H](C)CC(N)=O)c1ccc(Cl)c(Oc2ccc(C#N)cc2)c1F [Example 185]
0.68 µM	CCC(Nc1ccncc1)c1ccc(F)c(Oc2ccccc2)c1F (stereo not drawn) [Example 113, [1-(2,4-Difluoro-3-phenoxy-phenyl)-propyl]-pyridin-4-yl-amine.hydrochloride]
6.3 µM	N[C@H](CCO)c1ccc(Cl)c(Oc2ccccc2)c1F [Example 343]
9.7 µM	CCc1ncc(CNC(CC)c2ccc(F)c(Oc3ccccc3)c2F)[nH]1 (stereo not drawn) [Example 38]
1 µM	CC[C@@H](NCCC(N)=O)c1ccc(F)c(Oc2ccccc2)c1F [Example 122]
8.6 µM	CC[C@@H](N)c1ccc(Cl)c(Oc2ccc(S(=O)(=O)NC)cc2)c1F [Example 189]
7.6 µM	COCC[C@@H](N)c1ccc(Cl)c(Oc2ccccc2)c1F [Example 337, (R)-1-(4-Chloro-2-fluoro-3-phenoxy-phenyl)-3-methoxy-propylamine hydrochloride]

IC50	Structure (SMILES)
7.1 µM	CCC(NCc1c[nH]c2ccccc12)c1ccc(F)c(Oc2ccccc2)c1F (stereo not drawn) [Example 31]
6.6 µM	CCC(NC(CO)CO)c1ccc(F)c(Oc2ccccc2)c1F (stereo not drawn) [Example 43]
5.9 µM	CC[C@@H](N)c1ccc(Cl)c(Oc2ccccc2)c1Cl [Example 262]
8.2 µM	CC[C@@H](N)c1ccc(Cl)c(Oc2cc[nH]c(=O)c2)c1F [Example 218, 4-[3-((R)-1-Amino-propyl)-6-chloro-2-fluoro-phenoxy]-1H-pyridin-2-one. hydrochloride]
3.1 µM	CC[C@@H](N)c1ccc(Cl)c(Oc2ccc(C3(CO)CC3)cc2)c1F [Example 194]
6.3 µM	NC(C1=CCCCC1)c1ccc(F)c(Oc2ccccc2)c1F (stereo not drawn) [Example 40]
1.6 µM	CC[C@@H](N)c1ccc(Cl)c(Oc2ccc(-c3cnco3)cc2)c1F [Example 203, (R)-1-[4-Chloro-2-fluoro-3-(4-oxazol-5-yl-phenoxy)-phenyl]-propylamine.hydrochloride]
3.1 µM	CC[C@@H](N)c1ccc(Cl)c(Oc2ccc(C3(C#N)CC3)cc2)c1F [Example 192]
1.3 µM	CCNC(=O)O[C@@H](C)c1cccc(Oc2c(Cl)ccc([C@@H](N)CC)c2F)c1 [Example 140]
2 µM	CC[C@@H](N)c1ccc(Cl)c(Oc2ccc(F)cc2)c1F [Example 150]
6 µM	CCC(NC[C@@H](O)CO)c1ccc(F)c(Oc2ccccc2)c1F (stereo partly drawn) [Example 69]
6.2 µM	CC[C@@H](N)c1ccc(Cl)c(Oc2ccc(S(C)(=O)=O)cc2)c1F [Example 174]
0.11 µM	CC[C@@H](N[C@@H](C)CC(=O)NCCO)c1ccc(Cl)c(Oc2ccccc2)c1F [Example 147]
2 µM	N[C@@H](CCO)c1ccc(Cl)c(Oc2ccccc2)c1F [Example 338, 3-Amino-3-(4-chloro-2-fluoro-3-phenoxy-phenyl)-propan-1-ol.hydrochloride]
1.4 µM	CC[C@@H](N[C@@H](C)C(N)=O)c1ccc(Cl)c(Oc2ccccc2)c1F [Example 54, (S)-2-[(R)-1-(4-Chloro-2-fluoro-3-phenoxy-phenyl)-propylamino]-propionamide hydrochloride]
0.21 µM	CC[C@@H](N[C@@H](C)CC(N)=O)c1ccc(F)c(Oc2ccccc2)c1F [Example 121]
0.63 µM	CC[C@H](N)c1ccc(Cl)c(Oc2cccc(CO)c2)c1F [Example 111, {3-[3-((S)-1-Amino-propyl)-6-chloro-2-fluoro-phenoxy]-phenyl}-methanol.hydrochloride]

Same assay, conditions: read-out: Activity % inhibition @ 0.01 μM; 0.01 μM compound

inhibition at 0.01 µM	Structure (SMILES)
65%	C[C@@H](CC(=O)NCCN)N[C@H](C)c1ccc(Cl)c(Oc2ccccc2)c1F [Example 339]

What follows are compounds tested on HCV subgenomic replicon in Huh-7 cells (assay: Replicon assay, EC50 luciferase readout). Details: Hepatitis C virus, Huh-7, 72 h, Huh-7 replicon cells, 72 h; single value, or second value of a pair x:y; read-out: Activity EC50 (μM) (EC50 luciferase readout).
Format: cell-based, hepatitis C virus (HCV)
Experimental: The activities of compounds of the invention against HCV in a cellular environment were analysed using a replicon assay as described below.
Thus, Huh-7 cells persistently infected with an HCV-RNA construct (Bartenschlager, R. Hepatitis C replicons: potential role for drug development. Nature Rev. Drug Discov. 1, 911-916 (2002)) comprising: 5′ and 3′ non-translated regions (NTR); the non-structural genes NS3 to NS5b; as well as the G418 drug resistance gene, neomycin, (for selection of cells carrying HCV replicon RNA) fused to the firefly Luciferase reporter gene (pFK13889luc-ubi-neoNS3-3′ET), were used to determine the cell based antiviral activity of compounds using luciferase activity as an indirect readout of HCV RNA load. In this assay […] huh-7 cells persistently infected with the HCV subgenomic replicon construct above were platedwell in a 96 well tissue culture plate. The cells were allowed to attach overnight in DMEM medium supplemented with 10% FBS 1% NEAA, and 250 μgml gentamicin. The following day the medium was replaced with 200 μlwell of fresh medium as described above lacking gentamicin. […] Plates were then incubated at 37° C. in an atmosphere of 5% CO2 and air for 72 h. […] The plate was then read at 535 nm (excitation) and 590 nm (emission) on a SpectraMax Gemini reader (Molecular Devices) to determine the number of viable cells by measuring the conversion of rezasurin (Alamar blue) to resorufin in response to mitochondrial activity. In order to determine the antiviral effect of these compounds EC50 values were determined by measuring the luciferase activity of the cells. Alamar blue solution was removed from the wells and replaced with 100 μlwell of medium along with 100 μlwell of Bright-Glo reagent and incubated at room temperature for 5 minutes before transferring 100 μlwell to a white bottom 96 well plate to read in a luminometer as described in the Bright-Glo Luciferase Assay System protocol (promega).

Structure (SMILES)	EC50
CC[C@@H](N[C@@H](C)CC(N)=O)c1ccc(Cl)c(Oc2ccc(F)c(C(=O)NC)c2)c1F.Cl [Example 421]	0.4 µM
CC[C@@H](N[C@@H](C)CC(N)=O)c1ccc(Cl)c(Oc2cnc(N)cn2)c1F.Cl [Example 429]	3 µM
